One data set is described as follows: Cytotoxicity test. In kind it is cell-based. The note with it: human, TZM-bl cells.
The nature of another data set: Solubility in water. It counts as physicochemical.

Some results are limits rather than exact numbers.

The substance enfuvirtide displayed a half-maximal cytotoxic concentration (CC50) in “Cytotoxicity test” of more than 100 µM. The “aqueous solubility (in words)” value in “Solubility in water” is “negligible”.

The CC50 is the concentration giving 50% cytotoxicity.

The values above are taken from PMC7115413 (European Journal of Medicinal Chemistry, 2016).
